Measured values: patent US6818640B1, “2-imino-1,3-thiazine derivatives” (Shionogi & Co., Ltd., priority 1999, dated 2004)
Read-outs that look alike come from different tables or passages of the source.

Key:
[1] = target: T1, human CB1 receptor (CB1R) (Homo sapiens, UniProt P21554); test: Receptor binding assay of human CB1 receptor (CB1R), membranes of CB1R-expressing CHO cells
T1 construct: expressed in transfected cells
Description: (§1) The crude membrane fractions were then prepared from the CB2R-expressing CHO cells. Receptor binding assay was performed by incubating the membranes with each test compound and [^3H]CP55940 (at a final concentration of 0.5 nM: NEN Life Science Products) in the assay buffer (50 mM Tris-HCl, 1 mM EDTA, 3 mM MgCl2, pH 7.4) containing 0.5% bovine serum albumin (BSA) for 2 hr at 25° C. The incubation mixture was filtered through 1% polyethylenimine (PEI)-treated GF/C glass filter and washed with 50 mM Tris-HCl (pH 7.4) containing 0.1% BSA. The radioactivity was then counted with a liquid scintillation counter.
(§2) For the receptor binding assay of human CB1 receptor (CB1R), the stable CB1R-expressing CHO cells were prepared as described above, and the binding assay was performed with their membrane fractions. As a consequence of these studies, the Ki values of each test compound for both cannabinoid receptors were determined, which were presented in Table 89.

human CB2R [2] = target: T2, human CB2R (Homo sapiens, UniProt P34972); test: Human CB2 receptor (CB2R) binding inhibition, [3H]CP55940, membranes of CB2R-expressing CHO cells
T2 construct: The coding region of human CB2R cDNA; expressed in transfected cells
T2 sequence (P34972 whole entry): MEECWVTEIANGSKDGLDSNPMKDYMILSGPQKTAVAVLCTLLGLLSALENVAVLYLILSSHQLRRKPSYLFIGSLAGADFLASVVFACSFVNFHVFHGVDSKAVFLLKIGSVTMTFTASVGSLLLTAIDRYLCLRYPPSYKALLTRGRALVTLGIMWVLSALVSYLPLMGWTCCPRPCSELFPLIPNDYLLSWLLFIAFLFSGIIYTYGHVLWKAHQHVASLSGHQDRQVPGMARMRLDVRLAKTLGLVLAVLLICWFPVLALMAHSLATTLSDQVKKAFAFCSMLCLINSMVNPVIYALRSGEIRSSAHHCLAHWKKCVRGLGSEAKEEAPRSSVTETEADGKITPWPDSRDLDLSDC
Description: The prepared vector was transfected into Chinese Hamster Ovary (CHO) cells with LipofectAMINE reagent (Gibco BRL) according to the manufacture's protocol, and the stable CB2R-expressing clones were selected.
as §1, §2

human CB2R [3] = target: T2, human CB2R; test: CB2R-mediated suppression of forskolin-stimulated cAMP synthesis (agonistic activity), CHO cells expressing human CB2R; type: cell-based
Description: After the incubation, 4 μM forskolin (Sigma) was added and the cells were incubated for 20 min at 37° C. The reaction was stopped by the addition of 1N HCl and the amount of cAMP in the cell supernatant was measured using an EIA kit (Amersham Pharmacia Biotech) according to the manufacture's protocol.

[4] = system: SRBC-induced DTH reaction; test: Sheep red blood cell (SRBC)-induced delayed type hypersensitive (DTH) reaction, foot pad swelling; type: in vivo; details: female ddY mice, measured after 24 hrs
Description: Female ddY mice (7 weeks old) were used for the sheep red blood cell (SRBC)-induced delayed type hypersensitive (DTH) reaction.
Cannabinoid receptor agonist, I-6, I-60, I-77 and I-118 were suspended in 0.6% arabic gum solution. Mice were sensitized by the intradermal injection of 10^7 cells of SRBC (40 μl/foot) into the left hind foot pad. After 5 days, DTH reaction was induced by the intradermal injection of 10^8 cells of SRBC in the right hind foot pad. Test compounds were administerd p.o. (10 ml/kg) 1 hr before and 5 hr after the induction of DTH reaction. After 24 hrs of the injection of SRBC, the left and right foot pad volumes were measured by the water displacement method. The foot pad swelling was calculated as the differences in the volumes between the right and left hind foot pad, and used as an index of the DTH reaction.
Data are expressed as the inhibition percentage of each compound. Statistical analysis was performed with Welch's t-test, in which the value of P<0.05 is considered as a significant difference.

[5] = dose 30 mg/kg p.o. 1 hr before and 5 hr after induction

T1 sequence (P21554 whole entry): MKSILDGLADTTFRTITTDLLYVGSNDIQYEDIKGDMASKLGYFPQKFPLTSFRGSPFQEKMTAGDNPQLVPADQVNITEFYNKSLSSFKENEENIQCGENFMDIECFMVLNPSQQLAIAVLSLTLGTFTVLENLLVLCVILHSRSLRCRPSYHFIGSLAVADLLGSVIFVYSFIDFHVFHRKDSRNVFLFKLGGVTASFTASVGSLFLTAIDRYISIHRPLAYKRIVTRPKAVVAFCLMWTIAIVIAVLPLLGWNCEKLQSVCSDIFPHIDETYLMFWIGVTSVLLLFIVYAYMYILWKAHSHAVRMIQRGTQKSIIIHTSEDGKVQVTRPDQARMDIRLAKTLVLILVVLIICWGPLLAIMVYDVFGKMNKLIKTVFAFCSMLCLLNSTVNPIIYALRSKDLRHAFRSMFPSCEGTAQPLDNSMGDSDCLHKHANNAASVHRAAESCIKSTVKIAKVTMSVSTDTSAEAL

Row | SMILES | Ki [1] [nM] | Ki (human CB2R [2]) [nM] | also measured
1 | CSC(=O)N1CC(C)(C)CSC1=Nc1ccccc1C(C)C [Compound I-50] | > 5000 | 39 | –
2 | CSC(=S)N1CC(C)(C)CSC1=Nc1ccccc1C(C)C [Compound I-5, 2-(2-isopropylphenyl)imino-3-(methylthio)thiocarbonyl-5,5-dimethyl-1,3-thiazine] | > 5000 | 61 | IC50 (human CB2R [3]): 6.5 nM; melting point: 77 to 79 °C
3 | CSC(=S)N1CC(C)(C)CSC1=Nc1cccc(C(C)C)c1 [Compound I-69] | – | 33 | –
4 | CCC(C)c1ccccc1N=C1SCC(C)(C)CN1C(=O)SC (stereo not drawn) [Compound I-51] | – | 23 | IC50 (human CB2R [3]): 2.8 nM
5 | CCOc1ccc(/N=C2\SCC(C)(C)CN2C(=O)OC)cc1OCC | – | – | melting point: 75 to 76 °C
6 | COc1ccccc1N=C1SCC(C)(C)CN1C(=S)SC [Compound I-60] | 2100 | 18 | Inhibition percentage (foot pad swelling, DTH reaction) [4, 5]: 31.1%
7 | CCC(C)c1ccccc1N=C1SCC(C)(C)CN1C(=S)SC (stereo not drawn) [Compound I-57] | 4130 | 6 | IC50 (human CB2R [3]): 5.5 nM
8 | CSC(=O)N1CC(C)(C)CSC1=Nc1cccc(C(C)C)c1 [Compound I-52] | – | 35 | –
9 | CSC(=S)N1CC(C)(C)CSC1=Nc1ccccc1SC [Compound I-62] | – | 44 | –
10 | CCc1ccccc1N=C1SCC(C)(C)CN1C(=S)SC [Compound I-56] | – | 54 | –
11 | CCSC(=S)N1CC(C)(C)CSC1=Nc1ccccc1C(C)C [Compound I-84] | > 5000 | 35 | –
12 | CCSC(=S)N1CC(C)(C)CSC1=Nc1ccccc1C(C)CC (stereo not drawn) [Compound I-85] | – | 25 | –
13 | CCSC(=O)N1CC(C)(C)CSC1=Nc1ccccc1C(C)CC (stereo not drawn) [Compound I-23] | > 5000 | 29 | IC50 (human CB2R [3]): 2.6 nM
14 | COc1ccc(N=C2SCC(C)(C)CN2C(=S)SC)cc1OC [Compound I-77] | – | 53 | Inhibition percentage (foot pad swelling, DTH reaction) [4, 5]: 33.8%
15 | CCSC(=O)N1CCSC1=Nc1ccccc1C(C)C [Compound I-6, 3-(ethylthiocarbonyl)-2-(2-isopropylphenyl)imino-1,3-thiazolidine] | – | 9 | Inhibition percentage (foot pad swelling, DTH reaction) ([4]; dose 40 mg/kg p.o. 1 hr before and 5 hr after induction): 45.2%; IC50 (human CB2R [3]; CHO cells expressing human CB2R, 4 μM forskolin, read-out: IC50 (inhibition of forskolin-stimulated cAMP synthesis)): 2.7 nM; melting point: 79 to 81 °C
16 | CSC(=S)N1CC(C)(C)CSC1=Nc1ccc(C)c(C)c1 [Compound I-74] | – | 48 | –
17 | CCOC(=O)N1CC(C)(C)CSC1=Nc1ccccc1C(C)C | – | – | melting point: 84 to 86 °C
